Test system: HMT3522 T4-2 cells
Assay: Affymetrix U133A 2.0 gene expression profiling of T4-2 N-CoR2 cells vs T4-2 vector cells grown on rBM;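 also: total RNA converted to biotin-labelled cRNA, hybridized to arrays and confocally scanned, probe set intensities computed by GC-RMA, genes kept if flagged present in at least 2 of 8 samples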
Assay type: cell-based, human
Details: T4-2 N-CoR2 cells on rBM, 6 days
Experimental: HMT3522 T4-2 cells were derived from an epidermal growth factor (EGF)-dependent breast epithelial HMT3522 S-1 cells and an EGF-independent HMT3522 S-2 cells that spontaneously became malignant when injected into nude mice. HMT3522 T4-2 cells were propagated as monolayers on type I collagen-coated plastic surface in chemically defined medium consisting of DMEM:F12 medium (Invitrogen GIBCO), containing 250 ng/ml insulin (Boehringer Mannheim), 10 μg/ml transferrin (Sigma, St. Louis, Mo.), 2.6 ng/ml sodium splenetic (Collaborative Research), 10^−10 M estradiol (Sigma), 1.4×10^−6 M hydrocortisone (Collaborative Research), and 5 μg/ml prolactin (Sigma), as described in J. Cell Biol. 137:231-245 (1997).
Amphotropic retrovirus was produced in modified 293 cells or in Phoenix ampho cells (provided by Professor G. Nolan, Stanford Medical Center) with packaging vectors pCgp and pVSVG to boost viral titer. […] Sorted cells were expanded again in the presence of tetracycline.
To increase the yield of RNA for transcriptional profiling experiments, we grew 2×10^5 cells on top of rBM in a 60-mm tissue culture dish. As described, cells grown on top of rBM formed 3D cellular aggregates similar to those embedded in rBM. […] The cultures were maintained for 6 days before the collection of RNA samples.
Total RNA was extracted from monolayer culture or 3D culture by a modified TR1 reagent procedure as described (Biotechniques 19:942-945 (1995)) and purified using an RNeasy Mini Kit (Qiagen). Gene expression analysis was performed on an Affymetrix Human Genome U133A 2.0 GeneChip platform containing 22,283 probes according to the manufacturer's protocol (Affymetrix). Twenty micrograms of total RNA from each sample was processed to produce biotinylated cRNA targets. After hybridization, washing and staining arrays were scanned using a confocal scanner (Affymetrix). The hybridization intensity data was processed using the GeneChip Operating software (Affymetrix). Affymetrix .cel files (probe intensity files) were processed with ArrayAssist Lite (v3.4, Stratagene). The files were imported and processed with the GC-RMA algorithm to yield probe set intensities and additionally, Affymetrix Preset, Absent, Marginal flags were computed. These values were exported in .chp files, which were subsequently imported into the Partek Genomics Suite software (v6.2, Partek). The genes were filtered based on the Affymetrix P/A/M flags to retain only those genes that were present in at least 2 of the 8 samples.

N-CoR2
MEAN INTENSITY (N) 33304_at ISG20: 482.12
MEAN INTENSITY (N) 38037_at HBEGF: 361.24
MEAN INTENSITY (N) 38043_at FAM3A: 68.61
MEAN INTENSITY (N) 53991_at DENND2A: 20.60
MEAN INTENSITY (N) 200696_s_at GSN: 914.82
MEAN INTENSITY (N) 200821_at LAMP2: 347.91
MEAN INTENSITY (N) 200914_x_at KTN1: 343.43
MEAN INTENSITY (N) 201007_at HADHB: 7136.54
MEAN INTENSITY (N) 201132_at HNRPH2: 143.04
MEAN INTENSITY (N) 201215_at PLS3: 411.68
MEAN INTENSITY (N) 201472_at VBP1: 161.81
MEAN INTENSITY (N) 201540_at FHL1: 1059.88
MEAN INTENSITY (N) 201661_s_at ACSL3: 24.61
MEAN INTENSITY (N) 201864_at GDI1: 358.31
MEAN INTENSITY (N) 201865_x_at NR3C1: 332.55
MEAN INTENSITY (N) 201887_at IL13RA1: 93.97
MEAN INTENSITY (N) 201917_s_at SLC25A36: 28.72
MEAN INTENSITY (N) 201996_s_at SPEN: 72.47
MEAN INTENSITY (N) 202169_s_at AASDIIPPT: 25.30
MEAN INTENSITY (N) 202277_at SPTLC1: 110.99
MEAN INTENSITY (N) 202351_at ITGAV: 510.51
MEAN INTENSITY (N) 202371_at TCEAL4: 269.43
MEAN INTENSITY (N) 202376_at SERPINA3: 196.67
MEAN INTENSITY (N) 202378_s_at LEPROT: 228.55
MEAN INTENSITY (N) 202411_at IFI27: 155.11
MEAN INTENSITY (N) 202439_s_at IDS: 270.52
MEAN INTENSITY (N) 202602_s_at HTATSF1: 79.70
MEAN INTENSITY (N) 202829_s_at SYBL1: 38.13
MEAN INTENSITY (N) 202923_s_at GCLC: 167.13
MEAN INTENSITY (N) 203042_at LAMP2: 638.66
MEAN INTENSITY (N) 203156_at AKAP11: 21.24
MEAN INTENSITY (N) 203186_s_at S100A4: 227.62
MEAN INTENSITY (N) 203303_at DYNLT3: 44.35
MEAN INTENSITY (N) 203453_at SCNN1A: 142.26
MEAN INTENSITY (N) 203780_at EVA1: 133.29
MEAN INTENSITY (N) 203821_at HBEGF: 977.38
MEAN INTENSITY (N) 203917_at CXADR: 71.25
MEAN INTENSITY (N) 204020_at PURA: 200.32
MEAN INTENSITY (N) 204097_s_at RBMX2: 21.99
MEAN INTENSITY (N) 204343_at ABCA3: 38.38
MEAN INTENSITY (N) 204351_at S100P: 180.28
MEAN INTENSITY (N) 204533_at CXCL10: 24.04
MEAN INTENSITY (N) 204584_at L1CAM: 327.45
MEAN INTENSITY (N) 204602_at DKK1: 259.47
MEAN INTENSITY (N) 204881_s_at UGCG: 120.86
MEAN INTENSITY (N) 204976_s_at AMMECR1: 36.28
MEAN INTENSITY (N) 204981_at SLC22A18: 205.14
MEAN INTENSITY (N) 205097_at SLC26A2: 85.76
MEAN INTENSITY (N) 205128_x_at PTGS1: 125.00
MEAN INTENSITY (N) 205220_at GPR109B: 645.95
MEAN INTENSITY (N) 205315_s_at SNTB2: 87.78
MEAN INTENSITY (N) 205363_at BBOX1: 120.76
MEAN INTENSITY (N) 205428_s_at CALB2: 143.13
MEAN INTENSITY (N) 205569_at LAMP3: 64.51
MEAN INTENSITY (N) 205595_at DSG3: 177.64
MEAN INTENSITY (N) 205623_at ALDH3A1: 77.90
MEAN INTENSITY (N) 205709_s_at CDS1: 42.93
MEAN INTENSITY (N) 205767_at EREG: 183.71
MEAN INTENSITY (N) 205809_s_at WASL: 77.44
MEAN INTENSITY (N) 205900_at KRT1: 95.82
MEAN INTENSITY (N) 206295_at IL18: 188.27
MEAN INTENSITY (N) 206342_x_at IDS: 267.58
MEAN INTENSITY (N) 206645_s_at NR0B1: 107.59
MEAN INTENSITY (N) 207719_x_at CEP170: 21.69
MEAN INTENSITY (N) 207941_s_at RNPC2: 78.71
MEAN INTENSITY (N) 208241_at NRG1: 18.19
MEAN INTENSITY (N) 209022_at STAG2: 24.13
MEAN INTENSITY (N) 209028_s_at ABI1: 109.59
MEAN INTENSITY (N) 209194_at CETN2: 187.44
MEAN INTENSITY (N) 209289_at NFIB: 64.90
MEAN INTENSITY (N) 209726_at CA11: 105.08
MEAN INTENSITY (N) 209792_s_at KLK10: 505.96
MEAN INTENSITY (N) 210367_s_at PTGES: 246.35
MEAN INTENSITY (N) 210387_at HIST1H2BG: 579.17
MEAN INTENSITY (N) 211122_s_at CXCL11: 12.87
MEAN INTENSITY (N) 211343_s_at COL13A1: 88.75
MEAN INTENSITY (N) 211612_s_at IL13RA1: 104.96
MEAN INTENSITY (N) 211671_s_at NR3C1: 263.10
MEAN INTENSITY (N) 212007_at UBXD2: 117.00
MEAN INTENSITY (N) 212221_x_at IDS: 571.11
MEAN INTENSITY (N) 212223_at IDS: 186.65
MEAN INTENSITY (N) 212414_s_at SEPT6: 68.28
MEAN INTENSITY (N) 212415_at SEPT6: 11.03
MEAN INTENSITY (N) 212510_at GPD1L: 22.53
MEAN INTENSITY (N) 212531_at LCN2: 420.45
MEAN INTENSITY (N) 212605_s_at: 41.36
MEAN INTENSITY (N) 212616_at CHD9: 17.34
MEAN INTENSITY (N) 212622_at TMEM41B: 26.02
MEAN INTENSITY (N) 212640_at PTPLB: 459.88
MEAN INTENSITY (N) 213016_at: 34.12
MEAN INTENSITY (N) 213083_at SLC35D2: 234.84
MEAN INTENSITY (N) 213135_at TIAM1: 24.42
MEAN INTENSITY (N) 213229_at DICER1: 464.53
MEAN INTENSITY (N) 213294_at: 18.29
MEAN INTENSITY (N) 213593_s_at TRA2A: 34.25
MEAN INTENSITY (N) 213729_at PRPF40A: 15.54
MEAN INTENSITY (N) 214022_s_at IFITM1: 4135.74
MEAN INTENSITY (N) 214112_s_at CXorf40A: 479.14
MEAN INTENSITY (N) 214718_at GATAD1: 33.09
MEAN INTENSITY (N) 214722_at NOTCH2NL: 159.38
MEAN INTENSITY (N) 215206_at EXT1: 106.70
MEAN INTENSITY (N) 215245_x_at FMR1: 78.43
MEAN INTENSITY (N) 215813_s_at PTGS1: 76.88
MEAN INTENSITY (N) 216095_x_at MTMR1: 318.26
MEAN INTENSITY (N) 216942_s_at CD58: 34.65
MEAN INTENSITY (N) 217388_s_at KYNU: 634.02
MEAN INTENSITY (N) 217813_s_at SPIN: 59.32
MEAN INTENSITY (N) 217947_at CMTM6: 498.31
MEAN INTENSITY (N) 217948_at: 706.40
MEAN INTENSITY (N) 217975_at WBP5: 441.28
MEAN INTENSITY (N) 218053_at PRPF40A: 132.43
MEAN INTENSITY (N) 218085_at CHMP5: 84.03
MEAN INTENSITY (N) 218086_at NPDC1: 330.55
MEAN INTENSITY (N) 218163_at MCTS1: 521.74
MEAN INTENSITY (N) 218237_s_at SLC38A1: 608.07
MEAN INTENSITY (N) 218668_s_at RAP2C: 54.25
MEAN INTENSITY (N) 218986_s_at FLJ20035: 29.34
MEAN INTENSITY (N) 219001_s_at WDR32: 26.25
MEAN INTENSITY (N) 219010_at C1orf106: 585.64
MEAN INTENSITY (N) 219045_at RHOF: 540.25
MEAN INTENSITY (N) 219351_at TRAPPC2: 71.62
MEAN INTENSITY (N) 219356_s_at CHMP5: 242.88
MEAN INTENSITY (N) 219956_at GALNT6: 147.85
MEAN INTENSITY (N) 219995_s_at FLJ13841: 795.33
MEAN INTENSITY (N) 221553_at RP11-217II1.1: 90.64
MEAN INTENSITY (N) 221581_s_at LAT2: 163.24
MEAN INTENSITY (N) 221766_s_at FAM46A: 25.10
MEAN INTENSITY (N) 221829_s_at TNPO1: 213.54
MEAN INTENSITY (N) 221841_s_at KLF4: 264.55
MEAN INTENSITY (N) 221844_x_at: 96.74
MEAN INTENSITY (N) 222242_s_at KLK5: 26.38
MEAN INTENSITY (N) 222266_at C19orf2: 25.69

Reference: patent US8257928B2, “Methods for predicting and treating tumors resistant to drug, immunotherapy and radiation” (The Regents of the University of California, priority 2008, dated 2012)
